Laboratory results taken from patent publication US10898540B2, “Peptide having effects of increasing telomerase activity and extending telomere, and composition containing same” (GEMVAX & KAEL CO., LTD., priority 2016, dated 2021).

Columns and labels:
telomerase = assay: Telomerase activity (TeloTAGGG telomerase PCR ELISA, RTA) in brain tissue of 3xTg-AD mice after subcutaneous administration; assay type: in vivo, mouse; conditions: for increase of telomerase activity compared with saline-administered group (Group 1): s.c. three times a week for 2 months, whole brain tissue at age 15 months
Text: (§1) To test the PEP1 therapeutic effect on Alzheimer's disease, Alzheimer transgenic mice (3×Tg-AD) were purchased from Jackson Laboratory.
(§2) To investigate the effect of PEP1 according to concentration after breeding, experimental animals were divided and then administered experimental materials as follows. As a positive control material, donepezil was used, the experimental animals were divided into five groups, and each group included 10 mice. Administered materials and doses per group are as follows. • Group 1: Saline • Group 2: 0.01 mg/kg ofPEP1 • Group 3: 0.1 mg/kg of PEP1 • Group 4: 1 mg/kg of PEP1 • Group 5: 1 mg/kg of donepezil
(§3) PEP1, saline and donepezil were subcutaneously injected at each concentration three times a week for 2 months from the 12th month, one month later (at the age of 15 months), the mice (10 mice per group) were anesthetized, and reperfusion was carried out through the heart of each mouse using 0.9% saline to remove blood. Afterward, the brain was extracted, and separated into the hippocampus and the whole brain area, thereby obtaining brain tissue, and the tissue was rapidly frozen using liquid nitrogen.
To investigate PEP1-induced telomerase activity, TeloTAGGG telomerase PCR ELISAPLUS (Cat #12 013 789 001, Roche Boehringer-Mannheim, IN, USA) was used, the entire brain tissues prepared according to the method of Example 2-1 were pulverized, 200 μl of an ice-cold lysis buffer was added to […] of the tissue, incubated on ice for 30 minutes, and centrifuged at 16,000×g for 20 minutes to isolate 175 μl of a protein. 10 μg of the protein was quantified and mixed with a reaction mixture and an internal standard, followed by PCR (see FIG. 4). Hybridization was carried out, a sample was added to a specially-coated MP module to perform a reaction, and then absorbance was measured at 450 or 690 nm using an ELISA reader. Relative telomerase activities (RTAs) were calculated using a calculation formula (see FIG. 3).

telomere = assay: Telomere length (TeloTAGGG telomere length assay, Southern blot) in brain tissue of 3xTg-AD mice after subcutaneous administration; assay type: in vivo, mouse; conditions: 3xTg-AD mice, 0.01, 0.1 and 1 mg/kg s.c. three times a week for 2 months, whole brain tissue, FIG. 2
Text: as §1, §2
as §3, with “nitrogen. […]” for “nitrogen.”

## EARPALLTSRLRFIPK (hTERT derived peptide fragment) [PEP1, hTERT-derived peptide consisting of 16 amino acids, telomerase location [611-626], made by Fmoc solid phase synthesis]
telomerase; 0.1 mg/kg (Group 3)
  increase of telomerase activity compared with saline-administered group (Group 1): 266%
telomerase; Group 4 (dose printed as 'mg/kg'; Group 4 = 1 mg/kg)
  increase of telomerase activity compared with saline-administered group (Group 1): 370%
telomerase; Group 4 vs donepezil Group 5, s.c. three times a week for 2 months, FIG. 1
  telomerase activity compared with donepezil-administered group (Group 5): statistically significant increase
telomere
  telomere length: increased according to PEP1 administration concentration
